Molecular target: T1, PKCα (Homo sapiens, UniProt P17252)
T1 construct: isolate and photo-release endogenous PKCa from the undiluted detergent fractionated HeLa cell extracts; endogenous in cells; host or cells: HeLa cells (ATCC)
Assay: PMA mediated PKCα sub-cellular translocation, measured by kinase activity after photocleavable antibody isolation
Format: cell-based
Conditions: cultured HeLa cells stimulated with 200 nM PMA for 5 min, detergent fractionated; based on kinase activity of isolated PKCα; n=4
Experimental: FIG. 20. Phorbol ester (PMA) mediated protein kinase Cα (PKCα) sub-cellular translocation as measured by functional activity following isolation with photocleavable antibodies. Cultured HeLa cells were stimulated with 200 nM PMA for 5 min and detergent fractionated into the cytosol and membrane compartments prior to isolation and purification with the photocleavable antibodies.
Cultured HeLa cells (ATCC; Manassas, Va.) were stimulated for 5 min with 200 nM Phorbol-12-Myristate-13-Acetate (PMA; EMD Biosciences, Inc., San Diego, Calif.) and subsequently detergent fractionated into sub-cellular compartments according to reported procedures [Ramsby et al. (1994) Electrophoresis 15, 265-277; Ramsby & Makowski. (1999) Methods Mol Biol 112, 53-66; Chiang et al. (2000) J Biochem Biophys Methods 46, 53-68]. PMA is a potent activator of PKCα and is well known to cause translocation of the kinase from the cytosolic to the membrane sub-cellular compartments [Ross & Joyner. (1997) Endothelium 5, 321-332; Bazan & Rapoport. (1996) JPharmacol Toxicol Methods 36, 87-95; Yazlovitskaya & Melnykovych. (1995) Cancer Lett 88, 179-183]. […]

SMILES: CCCCCCCCCCCCCC(=O)O[C@@H]1[C@@H](C)[C@@]2(O)[C@@H](C=C(CO)C[C@]3(O)C(=O)C(C)=C[C@@H]23)[C@@H]2C(C)(C)[C@]12OC(C)=O [PMA, Phorbol-12-Myristate-13-Acetate]
- relative sub-cellular distribution of PKCα: cytosol: 16±4%
- relative sub-cellular distribution of PKCα: membrane: 84±3%
